Patent publication US9758524B2, “4-imidazopyridazin-1-yl-benzamides as Btk inhibitors” (Merck Sharp & Dohme B.V., priority 2011, dated 2017)
Like-named read-outs stand apart in the source and are kept apart here.

Assays:
[1] = biological target: Btk enzyme (His-Btk) (Homo sapiens (Human), UniProt Q06187); experiment: Btk enzyme activity (IMAP fluorescence polarization assay)
Procedure: Inhibition of kinase activity can be measured using the Immobilized Metal Assay for Phosphochemicals (IMAP) assay. IMAP is a homogeneous fluorescence polarization (FP) assay based on affinity capture of phosphorylated peptide substrates. IMAP uses fluorescein-labeled peptide substrates that, upon phosphorylation by a protein kinase, bind to so-called IMAP nanoparticles, which are derivatized with trivalent metal complexes.
Final peptide substrate concentration in assay is 50 nM.

[2] = biological target: Lck enzyme (Homo sapiens (Human), UniProt P06239); experiment: Lck enzyme activity (IMAP fluorescence polarization assay)
[3] = biological target: FynT enzyme (Homo sapiens (Human), UniProt P06241); experiment: FynT enzyme activity (IMAP fluorescence polarization assay); format: biochemical; conditions: 60 min pre-incubation, 0.2 μM ATP
Summary of the method: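 Human FynT pre-incubated with compounds 60 min at room temperature, then reacted 2 h at room temperature with fluorescein-labelled p34cdc2 peptide (100 nM final). Stopped with IMAP binding solution; fluorescence polarization read after 60 min. Activity as % of ±ATP control difference; EC50 by curve fitting.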

[4] = biological target: Lyn enzyme (Homo sapiens (Human), UniProt P07948); experiment: Lyn enzyme activity (IMAP fluorescence polarization assay)
[5] = biological target: Src enzyme (Homo sapiens (Human), UniProt P12931); experiment: Src enzyme activity (IMAP fluorescence polarization assay); conditions: read-out: EC50 Src activity values; IMAP, 60 min pre-incubation, 4 μM ATP
[6] = IMAP, 60 min pre-incubation, 5 μM ATP, bin bound in μM
[7] = read-out: EC50 Lck activity values, IMAP, 60 min pre-incubation, 6 μM ATP, bin bound in μM
[8] = read-out: EC50 Lyn activity values, 60 min pre-incubation, 2 μM ATP, bin bound in μM
[9] = IMAP, 60 min pre-incubation, 5 μM ATP, bin bound in nM
[10] = read-out: EC50 Btk activity values, IMAP, 60 min pre-incubation, 5 μM ATP, bin bound in nM

Sequence of Lyn enzyme (P07948 whole entry): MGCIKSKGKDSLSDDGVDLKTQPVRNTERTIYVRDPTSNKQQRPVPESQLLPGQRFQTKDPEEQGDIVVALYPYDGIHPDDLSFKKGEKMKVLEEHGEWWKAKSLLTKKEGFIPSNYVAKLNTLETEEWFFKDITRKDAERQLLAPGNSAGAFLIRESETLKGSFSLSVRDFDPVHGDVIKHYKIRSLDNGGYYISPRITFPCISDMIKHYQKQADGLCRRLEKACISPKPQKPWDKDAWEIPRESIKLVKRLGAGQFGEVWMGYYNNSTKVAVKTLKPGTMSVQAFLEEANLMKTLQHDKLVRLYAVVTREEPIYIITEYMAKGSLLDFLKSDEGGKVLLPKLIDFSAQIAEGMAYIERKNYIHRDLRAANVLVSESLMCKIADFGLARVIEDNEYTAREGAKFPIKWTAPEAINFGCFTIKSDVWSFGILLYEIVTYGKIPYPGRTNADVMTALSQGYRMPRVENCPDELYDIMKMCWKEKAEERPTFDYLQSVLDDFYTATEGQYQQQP
Sequence of Lck enzyme (P06239 whole entry): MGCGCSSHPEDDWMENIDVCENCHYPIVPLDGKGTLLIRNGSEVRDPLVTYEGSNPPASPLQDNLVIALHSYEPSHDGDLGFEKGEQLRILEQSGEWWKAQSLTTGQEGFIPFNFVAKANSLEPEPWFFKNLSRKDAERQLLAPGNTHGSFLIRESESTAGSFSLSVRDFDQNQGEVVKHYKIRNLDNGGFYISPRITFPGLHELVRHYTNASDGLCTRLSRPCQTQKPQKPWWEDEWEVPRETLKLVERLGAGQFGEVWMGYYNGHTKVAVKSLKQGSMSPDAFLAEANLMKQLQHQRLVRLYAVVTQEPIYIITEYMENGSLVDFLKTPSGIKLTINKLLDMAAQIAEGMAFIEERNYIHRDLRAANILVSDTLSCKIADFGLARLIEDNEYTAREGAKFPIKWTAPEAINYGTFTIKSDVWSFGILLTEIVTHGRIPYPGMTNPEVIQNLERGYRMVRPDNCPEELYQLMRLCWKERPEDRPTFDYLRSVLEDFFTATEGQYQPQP
Sequence of Src enzyme (P12931 whole entry, looked up): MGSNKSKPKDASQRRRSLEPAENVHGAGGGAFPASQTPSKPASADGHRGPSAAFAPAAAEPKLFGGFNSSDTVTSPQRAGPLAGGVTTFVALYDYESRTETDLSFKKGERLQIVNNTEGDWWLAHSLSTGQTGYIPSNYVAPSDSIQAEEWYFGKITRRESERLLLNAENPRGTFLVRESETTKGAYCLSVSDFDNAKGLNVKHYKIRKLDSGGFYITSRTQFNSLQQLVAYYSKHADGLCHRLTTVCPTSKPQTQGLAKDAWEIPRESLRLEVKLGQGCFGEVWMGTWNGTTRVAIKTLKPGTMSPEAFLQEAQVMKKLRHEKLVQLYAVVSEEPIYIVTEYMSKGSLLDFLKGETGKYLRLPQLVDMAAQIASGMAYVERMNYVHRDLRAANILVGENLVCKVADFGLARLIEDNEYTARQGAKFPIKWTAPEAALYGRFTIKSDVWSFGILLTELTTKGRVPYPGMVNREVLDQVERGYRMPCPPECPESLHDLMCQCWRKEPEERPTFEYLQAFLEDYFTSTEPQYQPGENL
Sequence of Btk enzyme (His-Btk) (Q06187 whole entry): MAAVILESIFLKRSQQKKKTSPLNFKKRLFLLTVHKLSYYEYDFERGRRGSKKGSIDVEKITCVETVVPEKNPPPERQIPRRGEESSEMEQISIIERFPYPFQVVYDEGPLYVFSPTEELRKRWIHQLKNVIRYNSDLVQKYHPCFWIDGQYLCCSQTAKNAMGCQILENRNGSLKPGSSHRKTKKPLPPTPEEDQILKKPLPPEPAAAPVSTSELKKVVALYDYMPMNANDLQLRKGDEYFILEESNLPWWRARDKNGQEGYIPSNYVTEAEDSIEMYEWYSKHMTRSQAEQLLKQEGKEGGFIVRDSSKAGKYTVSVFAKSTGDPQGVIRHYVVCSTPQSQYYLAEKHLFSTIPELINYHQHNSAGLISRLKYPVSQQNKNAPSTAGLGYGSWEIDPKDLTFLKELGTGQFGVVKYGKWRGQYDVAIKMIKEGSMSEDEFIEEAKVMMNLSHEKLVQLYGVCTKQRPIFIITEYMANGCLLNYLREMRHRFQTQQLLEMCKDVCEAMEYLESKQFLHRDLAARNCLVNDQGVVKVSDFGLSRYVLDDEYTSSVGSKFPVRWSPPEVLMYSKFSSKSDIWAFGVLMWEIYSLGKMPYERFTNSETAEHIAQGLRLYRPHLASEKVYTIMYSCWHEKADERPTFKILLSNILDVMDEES
Sequence of FynT enzyme (P06241 other isoform, or with tags, fused parts or gaps): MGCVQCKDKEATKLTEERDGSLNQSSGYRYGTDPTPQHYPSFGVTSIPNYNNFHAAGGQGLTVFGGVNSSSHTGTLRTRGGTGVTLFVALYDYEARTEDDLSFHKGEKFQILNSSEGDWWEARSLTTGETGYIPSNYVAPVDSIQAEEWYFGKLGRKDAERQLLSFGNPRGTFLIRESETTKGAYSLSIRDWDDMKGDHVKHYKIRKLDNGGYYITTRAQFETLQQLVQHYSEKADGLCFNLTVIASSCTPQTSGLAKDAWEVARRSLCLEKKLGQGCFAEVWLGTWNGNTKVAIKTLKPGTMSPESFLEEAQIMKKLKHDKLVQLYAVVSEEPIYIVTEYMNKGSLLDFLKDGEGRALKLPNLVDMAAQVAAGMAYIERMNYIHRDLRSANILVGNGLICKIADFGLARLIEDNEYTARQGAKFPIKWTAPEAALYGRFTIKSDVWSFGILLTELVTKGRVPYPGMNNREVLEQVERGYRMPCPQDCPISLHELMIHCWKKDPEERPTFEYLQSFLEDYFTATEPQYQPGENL

Compound | EC50 [1] | EC50 Btk activity values [1, 6] | EC50 [2, 7] | EC50 [3] | EC50 [4, 8] | EC50 [5] | EC50 Btk activity values [1, 9] | EC50 ([4]; EC50 Lyn activity values, 60 min pre-incubation, 2 μM ATP, bin bound in μM) | EC50 ([1]; read-out: EC50 Btk activity values, IMAP, 60 min pre-incubation, 5 μM ATP, bin bound in μM) | EC50 [1, 10] | EC50 [2] | EC50 Lck activity values ([2]; IMAP, 60 min pre-incubation, 6 μM ATP, bin bound in μM)
CCCc1ccnc(NC(=O)c2ccc(-c3nc([C@@H]4CCCN4C(=O)/C=C/COC)n4ccnc(N)c34)c(C)c2)c1 [Example 87, 4-(8-amino-3-((S)-1-((E)-4-methoxybut-2-enoyl)pyrrolidin-2-yl)imidazo[1,5-a]pyrazin-1-yl)-3-methyl-N-(4-propylpyridin-2-yl)benzamide] | 0.1 to 1 µM | <1 µM | ≥ 1 µM | ≥ 1 µM | ≥ 1 µM | ≥ 1 µM | – | – | – | – | – | –
COC/C=C/C(=O)N1CCCC[C@H]1c1nc(-c2ccc(C(=O)Nc3nccc(C)n3)cc2)c2c(N)nccn12 [Example 88, (S,E)-4-(8-amino-3-(1-(4-methoxybut-2-enoyl)piperidin-2-yl)imidazo[1,5-a]pyrazin-1-yl)-N-(4-methylpyrimidin-2-yl)benzamide] | 0.1 to 1 µM | <1 µM | ≥ 1 µM | ≥ 1 µM | ≥ 1 µM | ≥ 1 µM | – | – | – | – | – | –
CC#CC(=O)N1CCCC[C@H]1c1nc(-c2ccc(C(=O)Nc3nccc(C)n3)cc2)c2c(N)nccn12 [Example 89, (S)-4-(8-amino-3-(1-but-2-ynoylpiperidin-2-yl)imidazo[1,5-a]pyrazin-1-yl)-N-(4-methylpyrimidin-2-yl)benzamide] | 0.01 to 0.1 µM | – | ≥ 1 µM | ≥ 1 µM | – | ≥ 1 µM | <0.1 µM | ≥ 1 µM | – | – | – | –
Nc1nccn2c([C@@H]3CCCCN3C(=O)c3ccnc(Cl)n3)nc(-c3ccc(C(=O)Nc4ncccn4)cc3)c12 [Example 90, (S)-4-(8-amino-3-(1-(2-chloropyrimidine-4-carbonyl)piperidin-2-yl)imidazo[1,5-a]pyrazin-1-yl)-N-(pyrimidin-2-yl)benzamide] | 0.1 to 1 µM | <1 µM | ≥ 1 µM | ≥ 1 µM | ≥ 1 µM | ≥ 1 µM | – | – | – | – | – | –
C=C(C)C(=O)N1CCC[C@H]1c1nc(-c2ccc(C(=O)Nc3ccccn3)cc2)c2c(N)nccn12 [Example 91, (S)-4-(8-amino-3-(1-methacryloylpyrrolidin-2-yl)imidazo[1,5-a]pyrazin-1-yl)-N-(pyridin-2-yl)benzamide] | – | – | ≥ 1 µM | ≥ 1 µM | ≥ 1 µM | ≥ 1 µM | – | – | ≥ 1 µM | – | – | –
C=C(C(=O)N1CCC[C@H]1c1nc(-c2ccc(C(=O)Nc3ccccn3)cc2)c2c(N)nccn12)C(F)(F)F [Example 92, (S)-4-(8-amino-3-(1-(2-(trifluoromethyl)acryloyl)pyrrolidin-2-yl)imidazo[1,5-a]pyrazin-1-yl)-N-(pyridin-2-yl)benzamide] | 0.1 to 1 µM | <1 µM | ≥ 1 µM | ≥ 1 µM | ≥ 1 µM | ≥ 1 µM | – | – | – | – | – | –
N#CCN1CCC[C@H]1c1nc(-c2ccc(C(=O)Nc3ccccn3)cc2)c2c(N)nccn12 [Example 94, (S)-4-(8-amino-3-(1-(cyanomethyl)pyrrolidin-2-yl)imidazo[1,5-a]pyrazin-1-yl)-N-(pyridin-2-yl)benzamide] | 0.1 to 1 µM | <1 µM | ≥ 1 µM | ≥ 1 µM | ≥ 1 µM | ≥ 1 µM | – | – | – | – | – | –
COC/C=C/C(=O)NCc1nc(-c2ccc(C(=O)Nc3ccccn3)cc2)c2c(N)nccn12 [Example 95, (E)-4-(8-amino-3-((4-methoxybut-2-enamido)methyl)imidazo[1,5-a]pyrazin-1-yl)-N-(pyridin-2-yl)benzamide] | 0.01 to 0.1 µM | – | ≥ 1 µM | ≥ 1 µM | ≥ 1 µM | ≥ 1 µM | <0.1 µM | – | – | – | – | –
CC#CC(=O)N1CCC[C@H]1c1nc(-c2ccc(C(=O)Nc3cc(N4CCCC4)ccn3)cc2)c2c(N)nccn12 [Example 96, (S)-4-(8-amino-3-(1-but-2-ynoylpyrrolidin-2-yl)imidazo[1,5-a]pyrazin-1-yl)-N-(4-(pyrrolidin-1-yl)pyridin-2-yl)benzamide] | 0.01 to 0.1 µM | – | ≥ 1 µM | ≥ 1 µM | ≥ 1 µM | ≥ 1 µM | <0.1 µM | – | – | – | – | –
COC/C=C/C(=O)N1CCCCC[C@H]1c1nc(-c2ccc(C(=O)Nc3ccccn3)cc2)c2c(N)nccn12 [Example 97, (E)-4-(8-amino-3-(1-(4-methoxybut-2-enoyl)azepan-2-yl)imidazo[1,5-a]pyrazin-1-yl)-N-(pyridin-2-yl)benzamide] | 0.01 to 0.1 µM | – | ≥ 1 µM | ≥ 1 µM | ≥ 1 µM | ≥ 1 µM | <0.1 µM | – | – | – | – | –
COC/C=C/C(=O)N1CCC[C@H]1c1nc(-c2ccc(C(=O)Nc3cc(C#N)ccn3)cc2)c2c(N)nccn12 [Example 98, (S,E)-4-(8-amino-3-(1-(4-methoxybut-2-enoyl)pyrrolidin-2-yl)imidazo[1,5-a]pyrazin-1-yl)-N-(4-cyanopyridin-2-yl)benzamide] | 0.01 to 0.1 µM | – | ≥ 1 µM | ≥ 1 µM | ≥ 1 µM | ≥ 1 µM | <0.1 µM | – | – | – | – | –
CC#CC(=O)N1CCC[C@H]1c1nc(-c2ccc(C(=O)Nc3ccccn3)c(OC)c2)c2c(N)nccn12 [Example 99, (S)-4-(8-amino-3-(1-but-2-ynoylpyrrolidin-2-yl)imidazo[1,5-a]pyrazin-1-yl)-2-methoxy-N-(pyridin-2-yl)benzamide] | 0.01 to 0.1 µM | – | ≥ 1 µM | ≥ 1 µM | ≥ 1 µM | ≥ 1 µM | <0.1 µM | – | – | – | – | –
C=CC(=O)N[C@@H](C)c1nc(-c2ccc(C(=O)Nc3ccccn3)cc2)c2c(N)nccn12 [Example 100, (S)-4-(3-(1-acrylamidoethyl)-8-aminoimidazo[1,5-a]pyrazin-1-yl)-N-(pyridin-2-yl)benzamide] | – | – | ≥ 1 µM | ≥ 1 µM | ≥ 1 µM | ≥ 1 µM | – | – | – | < 0.01 µM | – | –
C=CC(=O)N1CCC[C@H]1c1nc(-c2ccc(C(=O)Nc3nccs3)cc2)c2c(N)nccn12 [Example 101, (S)-4-(3-(1-acryloylpyrrolidin-2-yl)-8-aminoimidazo[1,5-a]pyrazin-1-yl)-N-(thiazol-2-yl)benzamide] | – | – | ≥ 1 µM | ≥ 1 µM | ≥ 1 µM | ≥ 1 µM | – | – | – | < 0.01 µM | – | –
CC#CC(=O)N1CCC[C@H]1c1nc(-c2ccc(C(=O)Nc3cc(C(C)C)ccn3)cc2)c2c(N)nccn12 [Example 102, (S)-4-(8-amino-3-(1-but-2-ynoylpyrrolidin-2-yl)imidazo[1,5-a]pyrazin-1-yl)-N-(4-isopropylpyridin-2-yl)benzamide] | – | – | ≥ 1 µM | ≥ 1 µM | ≥ 1 µM | ≥ 1 µM | – | – | – | < 0.01 µM | – | –
COC/C=C/C(=O)N1CCC[C@H]1c1nc(-c2ccc(C(=O)Nc3ccccn3)c(OC)c2)c2c(N)nccn12 [Example 103, (S,E)-4-(8-amino-3-(1-(4-methoxybut-2-enoyl)pyrrolidin-2-yl)imidazo[1,5-a]pyrazin-1-yl)-2-methoxy-N-(pyridin-2-yl)benzamide] | 0.01 to 0.1 µM | – | ≥ 1 µM | ≥ 1 µM | ≥ 1 µM | ≥ 1 µM | <0.1 µM | – | – | – | – | –
Nc1nccn2c([C@@H]3CCCN3C(=O)/C=C/c3ccccc3)nc(-c3ccc(C(=O)Nc4ccccn4)cc3)c12 [Example 104, (S,E)-4-(8-amino-3-(1-cinnamoylpyrrolidin-2-yl)imidazo[1,5-a]pyrazin-1-yl)-N-(pyridin-2-yl)benzamide] | 0.1 to 1 µM | <1 µM | – | ≥ 1 µM | ≥ 1 µM | ≥ 1 µM | – | – | – | – | 0.1 to 1 µM | <1 µM
C[C@H](NC(=O)c1ccnc(Cl)n1)c1nc(-c2ccc(C(=O)Nc3ccccn3)cc2)c2c(N)nccn12 [Example 105, (S)-N-(1-(8-amino-1-(4-(pyridin-2-ylcarbamoyl)phenyl)imidazo[1,5-a]pyrazin-3-yl)ethyl)-2-chloropyrimidine-4-carboxamide] | 0.01 to 0.1 µM | – | ≥ 1 µM | ≥ 1 µM | ≥ 1 µM | ≥ 1 µM | <0.1 µM | – | – | – | – | –
CC#CC(=O)N1CCC[C@H]1c1nc(-c2ccc(C(=O)Nc3cc(F)ccn3)cc2)c2c(N)nccn12 [Example 106, (S)-4-(8-amino-3-(1-but-2-ynoylpyrrolidin-2-yl)imidazo[1,5-a]pyrazin-1-yl)-N-(4-fluoropyridin-2-yl)benzamide] | 0.01 to 0.1 µM | – | ≥ 1 µM | ≥ 1 µM | ≥ 1 µM | ≥ 1 µM | <0.1 µM | – | – | – | – | –
CCCc1ccnc(NC(=O)c2ccc(-c3nc([C@@H]4CCCCN4C(=O)c4ccnc(Cl)n4)n4ccnc(N)c34)cc2)c1 [Example 107, (S)-4-(8-amino-3-(1-(2-chloropyrimidine-4-carbonyl)piperidin-2-yl)imidazo[1,5-a]pyrazin-1-yl)-N-(4-propylpyridin-2-yl)benzamide] | – | – | ≥ 1 µM | ≥ 1 µM | ≥ 1 µM | ≥ 1 µM | – | – | – | < 0.01 µM | – | –
